Columns and labels:
VIOTR [1] = assay: Pre-emergence herbicidal action against VIOTR; format: in vivo, Viola tricolor
Method in brief: (§1)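 Greenhouse pots of sandy loam held seeds covered with soil, onto which the compound was applied before emergence. An aqueous suspension or emulsion of WP or EC was used at 600 to 800 l/ha with 0.2% wetting agent. Percent damage was judged visually at 3 weeks.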

DIGSA [2] = assay: Pre-emergence herbicidal action against DIGSA; format: in vivo, Digitaria sanguinalis
Method in brief: as §1

AMARE [3] = assay: Post-emergence herbicidal action against AMARE; format: in vivo, Amaranthus retroflexus; settings: 20 g/ha, visual assessment about 3 weeks after treatment, 100% = plants have died, 0% = like control plants
Method in brief: (§2)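 Foliar application at one-leaf stage of formulated test compounds, aqueous spray at 600–800 l/ha with 0.2% wetting agent. Greenhouse, optimal conditions, ~3 weeks; damage scored visually in % relative to untreated plants.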

SETVI [4] = assay: Pre-emergence herbicidal action against SETVI; format: in vivo, Setaria viridis; settings: dosage 80 g/ha
Method in brief: as §1

AMARE [5] = assay: Pre-emergence herbicidal action against AMARE; format: in vivo, Amaranthus retroflexus
Method in brief: as §1

AVEFA = assay: Post-emergence herbicidal action against AVEFA; format: in vivo, Avena fatua; settings: 20 g/ha, visual assessment about 3 weeks after treatment, 100% = plants have died, 0% = like control plants
Method in brief: as §2

ECHCG [6] = assay: Pre-emergence herbicidal action against ECHCG; format: in vivo, Echinochloa crus-galli
Method in brief: as §1

ABUTH [7] = assay: Pre-emergence herbicidal action against ABUTH; format: in vivo, Abutilon theophrasti
Method in brief: as §1

POLCO = assay: Pre-emergence herbicidal action against POLCO; format: in vivo, Polygonum convolvulus; settings: dosage 80 g/ha
Method in brief: as §1

ALOMY [8] = assay: Post-emergence herbicidal action against ALOMY; format: in vivo, Alopecurus myosuroides; settings: dosage 20 g/ha, visual assessment about 3 weeks after treatment vs untreated controls
Method in brief: as §2

LOLRI = assay: Post-emergence herbicidal action against LOLRI; format: in vivo, Lolium rigidum; settings: dosage 20 g/ha
Method: Seeds of monocotyledonous and dicotyledonous weed and crop plants are laid out in sandy loam soil in wood-fiber pots, covered with soil and cultivated in a greenhouse under good growth conditions. 2 to 3 weeks after sowing, the test plants are treated at the one-leaf stage. The compounds of the invention, formulated in the form of wettable powders (WP) or as emulsion concentrates (EC), are then sprayed onto the green parts of the plants in the form of an aqueous suspension or emulsion at a water application rate equivalent to 600 to 800 l/ha, with addition of 0.2% wetting agent. After the test plants have been left to stand in the greenhouse under optimal growth conditions for about 3 weeks, the action of the preparations is assessed visually in comparison to untreated controls (herbicidal action in percent (%): 100% activity=the plants have died, 0% activity=like control plants). […] The tables below illustrate, in an illustrative manner, the post-emergence herbicidal action of the compounds of the invention, the herbicidal activity being stated in percent.

SETVI [9] = assay: Post-emergence herbicidal action against SETVI; format: in vivo, Setaria viridis
Method in brief: as §2

PHBPU = assay: Post-emergence herbicidal action against PHBPU; format: in vivo, Pharbitis purpurea; settings: dosage 20 g/ha
Method in brief: as §2

VIOTR [10] = assay: Post-emergence herbicidal action against VIOTR; format: in vivo, Viola tricolor
Method in brief: as §2

DIGSA [11] = assay: Post-emergence herbicidal action against DIGSA; format: in vivo, Digitaria sanguinalis
Method in brief: as §2

ALOMY [12] = assay: Pre-emergence herbicidal action against ALOMY; format: in vivo, Alopecurus myosuroides; settings: 80 g/ha, pre-emergence, scored visually after 3 weeks vs untreated controls (100% = plants have died, 0% = like control plants)
Method in brief: as §1

MATIN = assay: Post-emergence herbicidal action against MATIN; format: in vivo, Matricaria inodora; settings: dosage 20 g/ha
Method in brief: as §2

STEME [13] = assay: Post-emergence herbicidal action against STEME; format: in vivo, Stellaria media
Method in brief: as §2

ECHCG [14] = assay: Post-emergence herbicidal action against ECHCG; format: in vivo, Echinochloa crus-galli
Method in brief: as §2

STEME [15] = assay: Pre-emergence herbicidal action against STEME; format: in vivo, Stellaria media
Method in brief: as §1

ABUTH [16] = assay: Post-emergence herbicidal action against ABUTH; format: in vivo, Abutilon theophrasti; settings: visual assessment about 3 weeks after treatment vs untreated controls
Method in brief: as §2

[17] = 80 g/ha, scored visually after 3 weeks vs untreated controls (100% = plants have died, 0% = like control plants)

## CCNC(=O)c1c(C(F)F)ccc(C(=O)Nc2nnco2)c1Cl [Example 5-123]
VIOTR [1]; dosage 20 g/ha
  Pre-emergence action against VIOTR in %: 90%
VIOTR [1]; dosage 80 g/ha
  Pre-emergence action against VIOTR in %: 100%
DIGSA [2]; dosage 20 g/ha
  Pre-emergence action against DIGSA in %: 100%
DIGSA [2]; dosage 80 g/ha
  Pre-emergence action against DIGSA in %: 100%
AMARE [3]
  Post-emergence action at 20 g/ha against AMARE in %: 90%
SETVI [4]
  Pre-emergence action against SETVI in %: 100%
AMARE [5]; 20 g/ha, scored visually after 3 weeks vs untreated controls, 100% = plants have died, 0% = like control plants
  Pre-emergence action against AMARE in %: 100%
AMARE [5]; [17]
  Pre-emergence action against AMARE in %: 100%
AVEFA
  Post-emergence action at 20 g/ha against AVEFA in %: 80%
ECHCG [6]; 20 g/ha
  Pre-emergence action against ECHCG in %: 90%
ECHCG [6]; 80 g/ha
  Pre-emergence action against ECHCG in %: 100%
ABUTH [7]; [17]
  Pre-emergence action against ABUTH (herbicidal activity): 100%
ABUTH [7]; dosage 20 g/ha, scored visually after 3 weeks vs untreated controls, 100% = plants have died, 0% = like control plants
  Pre-emergence action against ABUTH (herbicidal activity in percent): 100%
POLCO
  Pre-emergence action against POLCO in %: 80%
ALOMY [8]
  Post-emergence action against ALOMY in %: 80%
LOLRI
  Post-emergence action against LOLRI in %: 80%
SETVI [9]; dosage 5 g/ha
  Post-emergence action against SETVI in %: 80%
SETVI [9]; dosage 20 g/ha
  Post-emergence action against SETVI in %: 80%
PHBPU
  Post-emergence action against PHBPU in %: 80%
VIOTR [10]; 5 g/ha
  Post-emergence action against VIOTR in %: 80%
VIOTR [10]; 20 g/ha
  Post-emergence action against VIOTR in %: 90%
DIGSA [11]; 5 g/ha
  Post-emergence action against DIGSA in %: 90%
DIGSA [11]; 20 g/ha
  Post-emergence action against DIGSA: 90%
ALOMY [12]
  Pre-emergence action against ALOMY (herbicidal activity): 80%
MATIN
  Post-emergence action against MATIN in %: 80%
STEME [13]; 20 g/ha
  Post-emergence action against STEME in %: 90%
STEME [13]; dosage 5 g/ha
  Post-emergence action against STEME in %: 90%
ECHCG [14]; dosage 5 g/ha
  Post-emergence action against ECHCG in %: 90%
ECHCG [14]; dosage 20 g/ha
  Post-emergence action against ECHCG in %: 90%
STEME [15]; dosage 20 g/ha
  Pre-emergence action against STEME in %: 90%
STEME [15]; dosage 80 g/ha
  Pre-emergence action against STEME in %: 90%
ABUTH [16]; dosage 5 g/ha
  Post-emergence action against ABUTH in %: 90%
ABUTH [16]; dosage 20 g/ha
  Post-emergence action against ABUTH in %: 90%

Source: patent US12655116B2, “Substituted isophthalic acid diamides” (Bayer Aktiengesellschaft, priority 2020, dated 2026)
